PMC11944513, “Investigation on Human Carbonic Anhydrase IX and XII Inhibitory Activity and A549 Antiproliferative Activity of a New Class of Coumarinamides” (Pharmaceuticals, 2025)

Experiments:
h-CA I = h-CA I (Homo sapiens, UniProt P00915); test: stopped-flow CO2 hydrase assay, h-CA I
[1] = system: bronchial adenocarcinoma cells (A549); test: cell viability (MTT assay), A549; assay type: cell-based, human; conditions: for IC50: Homo sapiens, A549, 48 h exposure, nonlinear regression, predictive estimates
Procedure: The medium was supplemented with 10% heat-inactivated fetal bovine serum (FBS), 1% penicillin/streptomycin and 1% sodium pyruvate.
Cells were seeded at different densities according to the different experimental techniques performed (MTT assay and cell cycle analysis) and left to adhere for 24 h. […] The final DMSO concentration was kept below 0.3%. Cell viability was evaluated at up to 72 h post-treatment. Images were acquired 48 h after treatments by means of a light phase-contrast microscope equipped with a camera (Leica). Images were acquired and analyzed by the Leica Application Suite LAS EZ version 3.4 (Leica, Wetzlar, Germany).
(§1) BEAS and A549 cells were seeded in 96-well culture-treated plates (Falcon®, Corning Incorporated, Brooklyn, NY, USA) at a density of 0.5 × 10^4 cells/well. Untreated cells were set as the experimental control, representing 100% of cell viability. Exposure times varied from 24 up to 72 h. At the established time points (24, 48 and 72 h), the exposure medium was replaced with fresh medium containing 0.5 mg/mL 3-(4,5-dimethylthiazol-2-yl)-2,5-diphenyltetrazolium bromide (MTT) (Merck, Darmstadt, Germany) and processed as previously reported. The optical density in each well was measured at a wavelength of 540 nm using a spectrophotometer (Thermo Fisher Scientific, Waltham, MA, USA). Each experiment was performed in triplicate per experimental conditions (n = 3).

[2] = system: normal bronchial epithelial cells (BEAS-2B); test: cell viability (MTT assay), BEAS-2B; assay type: cell-based, human; conditions: for IC50: Homo sapiens, BEAS-2B, 48 h exposure, nonlinear regression, predictive estimates
Procedure: Human bronchial epithelial (BEAS-2B; CRL-3588) and human lung carcinoma (A549; CCL-185) cell lines were obtained from ATCC®. BEAS and A549 cells were maintained in complete RPMI 1640 (Merck, Darmstadt, Germany) at 37 °C and 5% CO2. The medium was supplemented with 10% heat-inactivated fetal bovine serum (FBS), 1% penicillin/streptomycin and 1% sodium pyruvate.
(§2) Cells were seeded at different densities according to the different experimental techniques performed (MTT assay and cell cycle analysis) and left to adhere for 24 h. Next, the medium was removed, and cells were treated with tested compounds, dissolved in dimethyl sulfoxide (DMSO) to achieve concentrations ranging from 0 µM (untreated control = CTRL) to 150 µM. The final DMSO concentration was kept below 0.3%. Cell viability was evaluated at up to 72 h post-treatment. Images were acquired 48 h after treatments by means of a light phase-contrast microscope equipped with a camera (Leica). Images were acquired and analyzed by the Leica Application Suite LAS EZ version 3.4 (Leica, Wetzlar, Germany).
as §1

h-CA XII = h-CA XII (Homo sapiens, UniProt O43570); test: stopped-flow CO2 hydrase assay, h-CA XII
h-CA IX = h-CA IX (Homo sapiens, UniProt Q16790); test: stopped-flow CO2 hydrase assay, h-CA IX; conditions: for selectivity on h-CA IX over h-CA XII (in words): comparison of Ki values
h-CA II = h-CA II (Homo sapiens, UniProt P00918); test: stopped-flow CO2 hydrase assay, h-CA II
A549 cells [3] = test: cytotoxicity assay (LDH test); assay type: cell-based, human; conditions: 24 h; for LDH released, fold increase respective to untreated cells: A549, 150 µM; for cytotoxicity occurrence (LDH release): A549, 0–150 µM
Procedure: as §2
To assess cytotoxicity in A549 cells after their treatment with the tested compounds, the amount of lactate dehydrogenase released into the culture medium was quantified using the CytoTox 96 non-radioactive cytotoxicity assay (Promega, Madison, WI, USA) according to the manufacturer’s instructions. Cell supernatants were collected from the same cultures processed for the MTT assay after 24 h of treatment and the optical density values obtained were normalized to those measured from the MTT assay.

A549 cells [4] = test: cell cycle analysis (PI flow cytometry); assay type: cell-based, human; conditions: A549, 0–150 µM, 48 h; S phase cells increased vs untreated control
Procedure: as §2
[…] At each time point, cells were detached using StemPro™ Accutase™, pelleted by centrifugation, and fixed overnight at 4 °C in 70% v/v cold ethanol. After fixation, cells were processed as described elsewhere. The PI fluorescence was detected by a flow cytometer equipped with a 488 nm laser (CytoFlex flow cytometer, Beckman Coulter, CA, USA) in the FL-3 channel. A minimum of 10,000 events/sample were acquired and analyzed with the CytExpert Software, version 2.3 (Beckman Coulter, CA, USA), and the percentages of cells in the G1, S, or G2 phase of the cell cycle were calculated using the ModFit LT™ Software, version 5.0 (Verity Software House, Topsham, ME, USA).

h-CA XII, sequence (O43570 25-354): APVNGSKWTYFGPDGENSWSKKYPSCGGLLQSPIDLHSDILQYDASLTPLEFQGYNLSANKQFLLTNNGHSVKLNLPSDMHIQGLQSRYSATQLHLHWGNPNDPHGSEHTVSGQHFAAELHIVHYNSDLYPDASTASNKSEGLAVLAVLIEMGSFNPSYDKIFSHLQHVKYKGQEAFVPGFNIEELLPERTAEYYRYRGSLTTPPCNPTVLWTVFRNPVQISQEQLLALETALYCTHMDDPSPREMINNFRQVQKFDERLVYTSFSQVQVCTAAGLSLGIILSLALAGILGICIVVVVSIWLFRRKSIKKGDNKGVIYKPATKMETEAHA
h-CA I, sequence (P00915 whole entry): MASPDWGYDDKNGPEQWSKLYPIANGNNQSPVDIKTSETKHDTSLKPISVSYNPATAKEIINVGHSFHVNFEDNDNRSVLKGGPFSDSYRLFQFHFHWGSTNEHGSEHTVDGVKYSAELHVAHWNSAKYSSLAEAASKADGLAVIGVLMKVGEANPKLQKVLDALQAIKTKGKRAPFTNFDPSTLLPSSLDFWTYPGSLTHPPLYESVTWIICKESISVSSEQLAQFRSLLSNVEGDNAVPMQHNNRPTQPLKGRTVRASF

| Ki (h-CA I) | IC50 [1] | Ki (h-CA XII) | Ki (h-CA IX) | Ki (h-CA II) | selectivity on h-CA XII over h-CA IX (h-CA XII; ratio of Ki values) | Structure (SMILES) | SI (selectivity index, IC50 BEAS/IC50 A549 ratio) ([1]; 48 h) | IC50 [2] | selectivity on h-CA IX over h-CA XII (in words) (h-CA IX) | LDH released, fold increase respective to untreated cells (A549 cells [3]) | cytotoxicity occurrence (LDH release) (A549 cells [3]) | arrest of cell cycle progression (A549 cells [4]) | cell viability of A549 cells ([1]; 1 µM, 48 h) | cell viability of BEAS cells ([2]; 1 µM, 48 h) |
| --- | --- | --- | --- | --- | --- | --- | --- | --- | --- | --- | --- | --- | --- | --- |
| > 100 µM | 90 ± 1.07 µM | 9.3 µM | 82.5 µM | > 100 µM |  | Cc1cccc(CNC(=O)c2cc3ccc(O)cc3oc2=O)c1 [Compound 6, 7-Hydroxy-N-(3-Methylbenzyl)-2-Oxo-2H-Chromene-3-Carboxamide] | 1.309 | 117.9 ± 1.08 µM |  |  |  |  |  |  |
| > 100 µM | 108 ± 1.28 µM | 22.5 µM | 32.8 µM | > 100 µM |  | COc1ccc(N2CCN(C(=O)c3cc4ccc(O)cc4oc3=O)CC2)cc1 [Compound 44, 7-Hydroxy-3-(4-(4-Methoxyphenyl)piperazine-1-Carbonyl)-2H-Chromen-2-One] | 1.888 | 203.5 ± 1.19 µM |  |  |  |  |  |  |
| > 100 µM | 59.7 ± 1.07 µM | 55.8 µM | 7.5 µM | > 100 µM |  | O=C(NCCc1cccc(Cl)c1)c1cc2ccc(O)cc2oc1=O [Compound 30, N-(3-Chlorophenethyl)-7-Hydroxy-2-Oxo-2H-Chromene-3-Carboxamide] | 1.465 | 87.4 ± 1.06 µM | good selectivity against h-CA IX over h-CA XII |  |  |  |  |  |
| > 100 µM | 85.8 ± 1.13 µM | 8.8 µM | 33.7 µM | > 100 µM |  | Cc1ccc(CNC(=O)c2cc3ccc(O)cc3oc2=O)cc1 [Compound 7, 7-Hydroxy-N-(4-Methylbenzyl)-2-Oxo-2H-Chromene-3-Carboxamide] |  | 157.8 ± 1.07 µM |  | ~2 fold |  |  |  |  |
| > 100 µM | 50 ± 1.28 µM | 9.2 µM | 70.3 µM | > 100 µM |  | Cc1ccc(N2CCN(C(=O)c3cc4ccc(O)cc4oc3=O)CC2)cc1C [Compound 38, 3-(4-(3,4-Dimethylphenyl)piperazine-1-Carbonyl)-7-Hydroxy-2H-Chromen-2-One] | 3.747 | 187.4 ± 1.27 µM |  |  | None of the compounds administered displayed cytotoxicity | able to arrest cells at the G1/S checkpoint |  |  |
| > 100 µM |  | 7.5 µM | 42.2 µM | > 100 µM |  | O=C(NCc1ccccc1)c1cc2ccc(O)cc2oc1=O [Compound 4, N-Benzyl-7-Hydroxy-2-Oxo-2H-Chromene-3-Carboxamide] |  | 344.9 ± 3.14 µM |  |  |  |  |  |  |
| > 100 µM | 55.9 ± 1.12 µM | 43.1 µM | 5.5 µM | > 100 µM |  | O=C(NCCc1ccccc1Cl)c1cc2ccc(O)cc2oc1=O [Compound 29, N-(2-Chlorophenethyl)-7-Hydroxy-2-Oxo-2H-Chromene-3-Carboxamide] | 1.386 | 77.5 ± 1.08 µM | good selectivity against h-CA IX over h-CA XII |  |  |  |  |  |
| > 100 µM | 25.7 ± 1.14 µM | 8.4 µM | 22.6 µM | > 100 µM |  | O=C(c1cc2ccc(O)cc2oc1=O)N1CCN(c2ccc(C(F)(F)F)cc2)CC1 [Compound 45, 3-(4-(4-Trifluoromethylphenyl)piperazine-1-Carbonyl)-7-Hydroxy-2H-Chromen-2-One] | 2.096 | 53.9 ± 1.07 µM |  |  |  |  |  |  |
| > 100 µM | 83.3 ± 1.08 µM | 84.1 µM | 22 µM | > 100 µM |  | O=C(NCc1ccc(Cl)cc1Cl)c1cc2ccc(O)cc2oc1=O [Compound 22, N-(2,4-Dichlorobenzyl)-7-Hydroxy-2-Oxo-2H-Chromene-3-Carboxamide] | 1.150 | 95.8 ± 1.07 µM |  |  |  |  |  |  |
| > 100 µM | 156.9 ± 1.12 µM | 9.1 µM | 49.3 µM | > 100 µM | ~5 fold | O=C(c1cc2ccc(O)cc2oc1=O)N1CCN(c2ccccc2)CC1 [Compound 32, 7-Hydroxy-3-(4-Phenylpiperazine-1-Carbonyl)-2H-Chromen-2-One] | 2.547 | 399.7 ± 1.68 µM |  |  |  |  |  |  |
| > 100 µM | 68.2 ± 1.11 µM | 9.1 µM | 53.8 µM | > 100 µM |  | COc1ccc(CNC(=O)c2cc3ccc(O)cc3oc2=O)cc1 [Compound 9, 7-Hydroxy-N-(4-Methoxylbenzyl)-2-Oxo-2H-Chromene-3-Carboxamide] |  | 116 ± 1.22 µM |  | ~3 fold |  |  |  |  |
| > 100 µM | 248.2 ± 1.57 µM | 35.5 µM | 25.4 µM | > 100 µM |  | Cc1ccccc1CNC(=O)c1cc2ccc(O)cc2oc1=O [Compound 5, 7-Hydroxy-N-(2-Methylbenzyl)-2-Oxo-2H-Chromene-3-Carboxamide] | 0.730 | 181.2 ± 1.2 µM |  |  |  |  |  |  |
| > 100 µM | 32 ± 1.22 µM | 64.9 µM | 19.3 µM | > 100 µM |  | O=C(NCc1ccccc1Cl)c1cc2ccc(O)cc2oc1=O [Compound 19, N-(2-Chlorobenzyl)-7-Hydroxy-2-Oxo-2H-Chromene-3-Carboxamide] | 1.271 | 40.7 ± 1.1 µM | about three times more active on h-CA IX |  |  |  |  |  |
|  |  |  |  |  |  | COc1cccc2c1C(=O)c1c(O)c3c(c(O)c1C2=O)C[C@@](O)(C(=O)CO)C[C@@H]3O[C@H]1C[C@H](N)[C@H](O)[C@H](C)O1 [doxorubicin, reference compound] |  |  |  |  |  |  | dramatically decreased | dramatically decreased |
| > 100 µM | 39.5 ± 1.06 µM | 21 µM | 46.2 µM | > 100 µM |  | O=C(NCc1ccc(Cl)c(Cl)c1)c1cc2ccc(O)cc2oc1=O [Compound 23, N-(3,4-Dichlorobenzyl)-7-Hydroxy-2-Oxo-2H-Chromene-3-Carboxamide] |  | 73.4 ± 1.1 µM |  |  | None of the compounds administered displayed cytotoxicity | able to arrest cells at the G1/S checkpoint |  |  |
| > 100 µM |  | 49.8 µM | 75.7 µM | > 100 µM |  | O=C(NCc1ccc([N+](=O)[O-])cc1)c1cc2ccc(O)cc2oc1=O [Compound 11, 7-Hydroxy-N-(4-Nitrobenzyl)-2-Oxo-2H-Chromene-3-Carboxamide] |  |  |  |  |  |  |  |  |
